For this assay, the system named is glioblastoma initiating cells (GICs). Description: survival of mice implanted intracranially with GICs and treated with TMZ. The format is in vivo, athymic nude mice. Particulars: control cells; intraperitoneal TMZ 20 mg/Kg/day for 5 days. Here is the method:
FIGS. 6A-6F illustrates the effect of clustered microRNAs on GBM cells treated with TMZ or irradiation. […] Dotted lines represent animals treated with TMZ. Different line colors represent the different overexpressed clusters.
Furthermore, in an in vivo model, mice were intracranially implanted with glioblastoma initiating cells (GICs) expressing either control vector, Cluster 3 or Cluster 5 vector and treated with intraperitoneal TMZ injections (20 mg/Kg/day for 5 days).

Consider one molecule from patent US11946064B2, “Compositions and therapeutic methods of microRNA gene delivery” (The Brigham and Women's Hospital, Inc., priority 2018, dated 2024).

Turning to `Cn1nnc2c(C(N)=O)ncn2c1=O` [TMZ, temozolomide], the survival benefit is on record as around 40%.
